For assay [1], the system named is HCT116. Particulars: 72 h. The procedure:
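HCT116 control and MTA1-KO (CRISPR) HCT116 cells were seeded in 384-well plates (800 cells/well), treated 16 h later with 237 metabolism-related anticancer drugs at five doses (10 uM, 2 uM, 400 nM, 80 nM, 16 nM) for 72 h, two replicates; viability by CCK8. Values are % inhibition of viability relative to untreated cells, plus fitted IC50.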

For assay [2], the system named is HCT116. As to the kind of experiment: viability inhibition vs untreated; higher = more cytotoxic. Particulars: 72 h.

Structures are written as SMILES. A value given as a limit tells only on which side of the number the result lay.

In general, IC50 refers to the concentration needed to halve the response being measured. In the case of `CCn1c(=O)c(-c2ccn[nH]2)cc2c(C)nc(N)nc21` [Voxtalisib], the IC50 in assay [1] (genotype: MTA1-KO) came to 2.36 µM; in assay [1] (genotype: control), 5.49 µM. Also, the viability inhibition was 5.96% in assay [2] (genotype: MTA1-KO, 16 nM); -3.02% in assay [2] (genotype: MTA1-KO, 80 nM); 6.24% in assay [2] (genotype: MTA1-KO, 400 nM); 35.5% in assay [2] (genotype: MTA1-KO, 2000 nM); 72.3% in assay [2] (genotype: MTA1-KO, 10000 nM); 8.11% in assay [2] (genotype: control, 16 nM). The viability inhibition in assay [2] (genotype: control, 80 nM) came out at 25.4%; in assay [2] (genotype: control, 400 nM), 16.1%; in assay [2] (genotype: control, 2000 nM), 37.2%; in assay [2] (genotype: control, 10000 nM), 70.3%.

On to `COC(=O)Nc1ccc(-c2nc(N3CCOCC3)c3cnn(C4CCN(C(=O)OC)CC4)c3n2)cc1` [WYE354], for which the results for the IC50 in assay [1] (genotype: MTA1-KO) and in assay [1] (genotype: control) were 2.79 µM and greater than 10 µM, respectively. The viability inhibition in assay [2] (genotype: MTA1-KO, 16 nM) is 2.45%; in assay [2] (genotype: MTA1-KO, 80 nM), -4.99%; in assay [2] (genotype: MTA1-KO, 400 nM), -5.74%; in assay [2] (genotype: MTA1-KO, 2000 nM), 4.61%; in assay [2] (genotype: MTA1-KO, 10000 nM) it was 59.8%; in assay [2] (genotype: control, 16 nM), -11.9%. Besides, the viability inhibition in assay [2] (genotype: control, 80 nM) was -23.4%; in assay [2] (genotype: control, 400 nM), -20.1%; in assay [2] (genotype: control, 2000 nM) it was -21.3%; in assay [2] (genotype: control, 10000 nM), 40.4%.

In the case of `CCC(=O)Nc1cccc(Oc2nc(Nc3ccc(N4CCN(C)CC4)cc3OC)ncc2Cl)c1` [WZ4003], the IC50 in assay [1] (genotype: MTA1-KO) and in assay [1] (genotype: control) was greater than 10 µM each time. Moreover, the viability inhibition in assay [2] (genotype: MTA1-KO, 16 nM) is -5.75%; in assay [2] (genotype: MTA1-KO, 80 nM), -20%; in assay [2] (genotype: MTA1-KO, 400 nM) it was -8%; in assay [2] (genotype: MTA1-KO, 2000 nM) it was -5.19%; in assay [2] (genotype: MTA1-KO, 10000 nM) it was 8.72%; in assay [2] (genotype: control, 16 nM) it was 8.56%. The viability inhibition in assay [2] (genotype: control, 80 nM) was -15.4%; in assay [2] (genotype: control, 400 nM) it was -4.38%; in assay [2] (genotype: control, 2000 nM), -7.1%; in assay [2] (genotype: control, 10000 nM), 12.2%.

Take `O=C(Oc1cccc(F)c1OC(=O)c1cccc(O)c1)c1cccc(O)c1` [WZB117]: the IC50 in assay [1] (genotype: MTA1-KO) and in assay [1] (genotype: control) was greater than 10 µM each time. The viability inhibition in assay [2] (genotype: MTA1-KO, 16 nM) was 1.38%; in assay [2] (genotype: MTA1-KO, 80 nM), -12.9%; in assay [2] (genotype: MTA1-KO, 400 nM), -10.3%; in assay [2] (genotype: MTA1-KO, 2000 nM) it was -1.16%; in assay [2] (genotype: MTA1-KO, 10000 nM), 12.7%; in assay [2] (genotype: control, 16 nM) it was -23.3%. For the same compound, the viability inhibition in assay [2] (genotype: control, 80 nM) was -8.87%; in assay [2] (genotype: control, 400 nM), -3.93%; in assay [2] (genotype: control, 2000 nM), -25.9%; in assay [2] (genotype: control, 10000 nM), -15%.

Take `O=c1[nH]c(-c2ccc(C(F)(F)F)cc2)nc2c1CSCC2` [XAV939]: the IC50 in assay [1] (genotype: MTA1-KO) and in assay [1] (genotype: control) was greater than 10 µM each time. For the same compound, the viability inhibition is 1.12% in assay [2] (genotype: MTA1-KO, 16 nM); -14.7% in assay [2] (genotype: MTA1-KO, 80 nM); -18% in assay [2] (genotype: MTA1-KO, 400 nM); -23.8% in assay [2] (genotype: MTA1-KO, 2000 nM); -14.9% in assay [2] (genotype: MTA1-KO, 10000 nM); 4.99% in assay [2] (genotype: control, 16 nM). Also, the viability inhibition is 12.8% in assay [2] (genotype: control, 80 nM); 0.365% in assay [2] (genotype: control, 400 nM); 4.5% in assay [2] (genotype: control, 2000 nM); 0.791% in assay [2] (genotype: control, 10000 nM).

Take `Cc1c(C(=O)N2CCOc3ccc(-c4ccc(N)nc4)cc3C2)ccc(S(C)(=O)=O)c1F` [XL388]: the IC50 is 4.64 µM in assay [1] (genotype: MTA1-KO) and greater than 10 µM in assay [1] (genotype: control). Also, the viability inhibition in assay [2] (genotype: MTA1-KO, 16 nM) is -7.29%; in assay [2] (genotype: MTA1-KO, 80 nM) it was 5.97%; in assay [2] (genotype: MTA1-KO, 400 nM), 0.224%; in assay [2] (genotype: MTA1-KO, 2000 nM) it was 19%; in assay [2] (genotype: MTA1-KO, 10000 nM) it was 74.8%; in assay [2] (genotype: control, 16 nM), 0.193%. Moreover, the viability inhibition in assay [2] (genotype: control, 80 nM) is -2.53%; in assay [2] (genotype: control, 400 nM), -7.3%; in assay [2] (genotype: control, 2000 nM), -11.7%; in assay [2] (genotype: control, 10000 nM) it was 47%.

For `NS(=O)(=O)Cc1noc2ccccc12` [Zonisamide], the IC50 in assay [1] (genotype: MTA1-KO) and in assay [1] (genotype: control) was greater than 10 µM throughout. Also, the viability inhibition was 2.91% in assay [2] (genotype: MTA1-KO, 16 nM); -1.38% in assay [2] (genotype: MTA1-KO, 80 nM); -4.06% in assay [2] (genotype: MTA1-KO, 400 nM); -5.28% in assay [2] (genotype: MTA1-KO, 2000 nM); -6.62% in assay [2] (genotype: MTA1-KO, 10000 nM); -7.18% in assay [2] (genotype: control, 16 nM). For the same compound, the viability inhibition in assay [2] (genotype: control, 80 nM) is -18.6%; in assay [2] (genotype: control, 400 nM) it was 2.58%; in assay [2] (genotype: control, 2000 nM), 2.07%; in assay [2] (genotype: control, 10000 nM) it was 31.7%.

With `CO[C@H]1C[C@@H]2CC[C@@H](C)[C@@](O)(O2)C(=O)C(=O)N2CCCC[C@H]2C(=O)O[C@H]([C@H](C)C[C@@H]2CC[C@H](n3cnnn3)[C@H](OC)C2)CC(=O)[C@H](C)/C=C(\C)[C@@H](O)[C@@H](OC)C(=O)[C@H](C)C[C@H](C)/C=C/C=C/C=C/1C` [Zotarolimus], the half-maximal inhibitory concentration (IC50) in assay [1] (genotype: MTA1-KO) was 2.07 µM; in assay [1] (genotype: control) it was greater than 10 µM. Moreover, the viability inhibition in assay [2] (genotype: MTA1-KO, 16 nM) is 5.1%; in assay [2] (genotype: MTA1-KO, 80 nM), -1.86%; in assay [2] (genotype: MTA1-KO, 400 nM), 2.56%; in assay [2] (genotype: MTA1-KO, 2000 nM), 34.7%; in assay [2] (genotype: MTA1-KO, 10000 nM) it was 69.3%; in assay [2] (genotype: control, 16 nM), -4.9%. Also, the viability inhibition in assay [2] (genotype: control, 80 nM) is -11.3%; in assay [2] (genotype: control, 400 nM) it was -9.38%; in assay [2] (genotype: control, 2000 nM), -17.6%; in assay [2] (genotype: control, 10000 nM) it was 9.36%.

Consider `C/C=C/c1cc(OC)c(OC)cc1OC` [alpha-Asarone], for which the IC50 in assay [1] (genotype: MTA1-KO) and in assay [1] (genotype: control) was greater than 10 µM each time. The viability inhibition in assay [2] (genotype: MTA1-KO, 16 nM) is -3.55%; in assay [2] (genotype: MTA1-KO, 80 nM) it was -23.5%; in assay [2] (genotype: MTA1-KO, 400 nM) it was -15.1%; in assay [2] (genotype: MTA1-KO, 2000 nM), -10.5%; in assay [2] (genotype: MTA1-KO, 10000 nM), 9.18%; in assay [2] (genotype: control, 16 nM), -6.36%. Also, the viability inhibition in assay [2] (genotype: control, 80 nM) is -8.84%; in assay [2] (genotype: control, 400 nM) it was -15.6%; in assay [2] (genotype: control, 2000 nM), -8.42%; in assay [2] (genotype: control, 10000 nM), -0.859%.

Values taken from the supplement of paper PMC10477900.
